This note sets out measurements from patent publication US20220323406A1, “METHODS AND COMPOSITIONS FOR DIFFERENTIATING STEM CELLS” (Massachusetts Institute of Technology, priority 2019, published 2022).

One assay deals with ENR+CD organoids. The experiment in a line: Primary screen: ATP (CellTiter-Glo 3D, CTG) cell number/viability, 2.5-D 384-well ENR+CD organoids.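 On all read-outs here: compounds given at plating and again on day 3 over a 6-day differentiation from ENR+CV stem-cell-enriched precursors, ATP measured on day 6, plate median as control.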 Conditions: primary screen; for Z.CTG: standard z score. On the technique in general: In ATP-based viability assays light output follows the ATP content of the culture.
The subject of assay [1] is ENR+CD organoids (ISC to Paneth cell differentiation). The experiment in a line: Primary screen: CCh-stimulated lysozyme secretion LYZ.S, 2.5-D 384-well ENR+CD organoid differentiation. Format: cell-based, mouse. Particulars: primary screen. The source says:
(§1) High-throughput screening.

The test system is the same in assay [2]. Description: Primary screen: basal (non-stimulated) lysozyme secretion LYZ.NS, 2.5-D 384-well ENR+CD organoid differentiation. In kind it is cell-based, mouse. Conditions: primary screen; for Z.LYZ.NS: standard z score.
Source text: as §1

On to `COc1ccc2cccc(CCNC(C)=O)c2c1` [Agomelatine], for which the Dose.FC.CTG in the assay on ENR+CD organoids (dose 0.08 uM) is listed as 0.106 log2 fold change; with ENR+CD organoids (dose 0.40 uM) it was 0.081 log2 fold change; with ENR+CD organoids (dose 2.00 uM) it was −0.198 log2 fold change; with ENR+CD organoids (dose 10.00 uM), 0.024 log2 fold change. The Dose.FC.LYZ.S is reported as 0.090 log2 fold change in assay [1] (dose 0.08 uM), 0.132 log2 fold change in assay [1] (dose 0.40 uM), −0.037 log2 fold change in assay [1] (dose 2.00 uM) and 0.008 log2 fold change in assay [1] (dose 10.00 uM). The Dose.FC.LYZ.NS is given as 0.026 log2 fold change in assay [2] (dose 0.08 uM), 0.080 log2 fold change in assay [2] (dose 0.40 uM), 0.069 log2 fold change in assay [2] (dose 2.00 uM) and −0.033 log2 fold change in assay [2] (dose 10.00 uM). Also, the “Z.LYZ.NS (standard z score)” value in assay [2] (dose 0.08 uM) was 0.227; in assay [2] (dose 0.40 uM), 0.695; in assay [2] (dose 2.00 uM) it was 0.597; in assay [2] (dose 10.00 uM) it was −0.285.
As for `CN[C@@H](C)C(=O)N[C@H](C(=O)N1CCC[C@H]1C(=O)Nc1snnc1-c1ccccc1)C1CCCCC1` [GDC-0152], the Dose.FC.CTG in the assay on ENR+CD organoids (dose 0.08 uM) is 0.151 log2 fold change; in the assay with ENR+CD organoids (dose 0.40 uM), 0.158 log2 fold change; in the assay on ENR+CD organoids (dose 2.00 uM) it was 0.003 log2 fold change; with ENR+CD organoids (dose 10.00 uM), 0.241 log2 fold change. Further, the Z.CTG with ENR+CD organoids (dose 0.08 uM) is 0.361; with ENR+CD organoids (dose 0.40 uM), 0.377; in the assay with ENR+CD organoids (dose 2.00 uM), 0.008; in the assay on ENR+CD organoids (dose 10.00 uM), 0.575. Besides, the Dose.FC.LYZ.S in assay [1] (dose 0.08 uM) was −0.020 log2 fold change; in assay [1] (dose 0.40 uM) it was −0.036 log2 fold change; in assay [1] (dose 2.00 uM) it was −0.057 log2 fold change; in assay [1] (dose 10.00 uM) it was −0.009 log2 fold change. Besides, the Dose.FC.LYZ.NS in assay [2] (dose 0.08 uM) is −0.002 log2 fold change; in assay [2] (dose 0.40 uM), −0.020 log2 fold change; in assay [2] (dose 2.00 uM), 0.083 log2 fold change; in assay [2] (dose 10.00 uM) it was 0.103 log2 fold change. Besides, the Z.LYZ.NS is −0.013 in assay [2] (dose 0.08 uM), −0.176 in assay [2] (dose 0.40 uM), 0.724 in assay [2] (dose 2.00 uM) and 0.900 in assay [2] (dose 10.00 uM).
Turning to `CCC(=O)Nc1cccc(Oc2nc(Nc3ccc(N4CCN(C)CC4)cc3OC)ncc2Cl)c1` [WZ4003], the Dose.FC.CTG is 0.375 log2 fold change in the assay with ENR+CD organoids (dose 0.08 uM), 0.173 log2 fold change with ENR+CD organoids (dose 0.40 uM), 0.076 log2 fold change in the assay on ENR+CD organoids (dose 2.00 uM) and −0.018 log2 fold change in the assay on ENR+CD organoids (dose 10.00 uM). Also, the “Z.CTG (standard z score)” value is given as 0.896 with ENR+CD organoids (dose 0.08 uM), 0.413 in the assay with ENR+CD organoids (dose 0.40 uM), 0.180 in the assay with ENR+CD organoids (dose 2.00 uM) and −0.043 with ENR+CD organoids (dose 10.00 uM). For the same molecule, the Dose.FC.LYZ.S in assay [1] (dose 0.08 uM) is listed as 0.117 log2 fold change; in assay [1] (dose 0.40 uM), −0.034 log2 fold change; in assay [1] (dose 2.00 uM), −0.035 log2 fold change; in assay [1] (dose 10.00 uM), −0.142 log2 fold change. Besides, the Dose.FC.LYZ.NS is reported as 0.074 log2 fold change in assay [2] (dose 0.08 uM), −0.041 log2 fold change in assay [2] (dose 0.40 uM), −0.017 log2 fold change in assay [2] (dose 2.00 uM) and −0.098 log2 fold change in assay [2] (dose 10.00 uM). In addition, the “Z.LYZ.NS (standard z score)” value in assay [2] (dose 0.08 uM) was 0.644; in assay [2] (dose 0.40 uM), −0.359; in assay [2] (dose 2.00 uM) it was −0.151; in assay [2] (dose 10.00 uM), −0.850.
